According to ChEMBL document CHEMBL1240342, “Molecular modeling studies of vascular endothelial growth factor receptor tyrosine kinase inhibitors using QSAR and docking” (J Mol Graph Model, 2009):

target: Vascular endothelial growth factor receptor 2 (Homo sapiens, UniProt P35968); test: Inhibition of human VEGFR2 after 60 mins
Sequence (P35968 whole entry): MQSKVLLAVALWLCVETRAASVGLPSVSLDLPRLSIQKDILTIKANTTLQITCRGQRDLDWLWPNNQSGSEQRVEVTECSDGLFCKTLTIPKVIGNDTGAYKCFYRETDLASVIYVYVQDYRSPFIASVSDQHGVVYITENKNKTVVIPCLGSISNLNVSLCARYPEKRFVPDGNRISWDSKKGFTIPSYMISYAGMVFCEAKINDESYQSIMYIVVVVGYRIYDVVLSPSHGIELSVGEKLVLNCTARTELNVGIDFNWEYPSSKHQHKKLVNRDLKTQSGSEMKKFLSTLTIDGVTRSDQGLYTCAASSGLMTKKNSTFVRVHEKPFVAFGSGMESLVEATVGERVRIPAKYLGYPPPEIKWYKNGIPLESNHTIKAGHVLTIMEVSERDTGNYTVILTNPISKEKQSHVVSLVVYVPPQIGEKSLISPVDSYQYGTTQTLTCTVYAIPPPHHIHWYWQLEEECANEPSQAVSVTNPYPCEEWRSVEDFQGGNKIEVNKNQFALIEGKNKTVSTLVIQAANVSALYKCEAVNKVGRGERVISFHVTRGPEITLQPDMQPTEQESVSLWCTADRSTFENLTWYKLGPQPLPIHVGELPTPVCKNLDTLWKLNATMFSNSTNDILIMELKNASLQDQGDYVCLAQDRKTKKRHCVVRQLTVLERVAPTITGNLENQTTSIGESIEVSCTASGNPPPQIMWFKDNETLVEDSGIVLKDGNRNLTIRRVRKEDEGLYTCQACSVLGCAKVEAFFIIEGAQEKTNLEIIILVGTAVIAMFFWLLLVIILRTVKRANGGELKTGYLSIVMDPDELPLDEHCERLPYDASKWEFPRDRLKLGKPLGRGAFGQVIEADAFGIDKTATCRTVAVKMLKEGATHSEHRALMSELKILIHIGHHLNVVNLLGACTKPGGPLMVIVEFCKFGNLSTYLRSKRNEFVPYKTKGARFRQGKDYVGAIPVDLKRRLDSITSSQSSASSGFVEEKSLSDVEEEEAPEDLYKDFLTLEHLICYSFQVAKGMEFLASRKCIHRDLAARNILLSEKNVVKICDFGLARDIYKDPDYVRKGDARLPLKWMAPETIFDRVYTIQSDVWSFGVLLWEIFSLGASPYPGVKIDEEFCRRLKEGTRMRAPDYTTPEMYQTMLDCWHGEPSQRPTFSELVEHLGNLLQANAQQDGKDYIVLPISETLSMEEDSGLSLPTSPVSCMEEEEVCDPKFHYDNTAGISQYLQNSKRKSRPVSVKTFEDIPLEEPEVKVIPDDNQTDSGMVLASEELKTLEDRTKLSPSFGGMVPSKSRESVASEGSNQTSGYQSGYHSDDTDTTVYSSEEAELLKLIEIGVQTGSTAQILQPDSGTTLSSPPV

IC50	Compound
2.14 nM	COc1cc2nccc(Oc3ccc4c(C(=O)NC5CCC5)cccc4c3)c2cc1OC
5.5 nM	COc1cc2nccc(Oc3ccc4c(C(=O)NC(C)C)cccc4c3)c2cc1OC
3.8 nM	COc1cc2nccc(Oc3ccc4c(C(=O)NCC(F)F)cccc4c3)c2cc1OC
12 nM	COc1cc2nccc(Oc3ccc4c(C(=O)NC5CCCC5)cccc4c3)c2cc1OC

More lines, now with the values behind:

Compound	IC50
COc1cc2nccc(Oc3ccc4c(c3)OCCN4C(=O)Nc3ccc(C)cc3)c2cc1C(C)=O	0.501 nM
COc1cc2nccc(Oc3ccc4c(c3)OCCN4C(=O)Nc3ccc(Cl)cc3)c2cc1C(C)=O	0.603 nM
COc1cc2nccc(Oc3ccc4c(C(=O)Nc5ccc(Cl)cc5)cccc4c3)c2cc1C(C)=O	0.2 nM
COCCNC(=O)c1cccc2cc(Oc3ccnc4cc(OC)c(C(C)=O)cc34)ccc12	21.9 nM
COc1cc2nccc(Oc3ccc4c(C(=O)NC5CC5)cccc4c3)c2cc1C(C)=O	0.372 nM
COc1cc2nccc(Oc3ccc4c(C(N)=O)cccc4c3)c2cc1C(C)=O	1.2 nM
